Each structure is given as a SMILES string.

One may read the IC50 as the point on the concentration scale where inhibition reaches its midpoint. A high value points to weaker potency.

In the assay the target is EGFR (human) (UniProt P00533). As to conditions: A431.
Sequence of EGFR (human) (P00533 whole entry, looked up): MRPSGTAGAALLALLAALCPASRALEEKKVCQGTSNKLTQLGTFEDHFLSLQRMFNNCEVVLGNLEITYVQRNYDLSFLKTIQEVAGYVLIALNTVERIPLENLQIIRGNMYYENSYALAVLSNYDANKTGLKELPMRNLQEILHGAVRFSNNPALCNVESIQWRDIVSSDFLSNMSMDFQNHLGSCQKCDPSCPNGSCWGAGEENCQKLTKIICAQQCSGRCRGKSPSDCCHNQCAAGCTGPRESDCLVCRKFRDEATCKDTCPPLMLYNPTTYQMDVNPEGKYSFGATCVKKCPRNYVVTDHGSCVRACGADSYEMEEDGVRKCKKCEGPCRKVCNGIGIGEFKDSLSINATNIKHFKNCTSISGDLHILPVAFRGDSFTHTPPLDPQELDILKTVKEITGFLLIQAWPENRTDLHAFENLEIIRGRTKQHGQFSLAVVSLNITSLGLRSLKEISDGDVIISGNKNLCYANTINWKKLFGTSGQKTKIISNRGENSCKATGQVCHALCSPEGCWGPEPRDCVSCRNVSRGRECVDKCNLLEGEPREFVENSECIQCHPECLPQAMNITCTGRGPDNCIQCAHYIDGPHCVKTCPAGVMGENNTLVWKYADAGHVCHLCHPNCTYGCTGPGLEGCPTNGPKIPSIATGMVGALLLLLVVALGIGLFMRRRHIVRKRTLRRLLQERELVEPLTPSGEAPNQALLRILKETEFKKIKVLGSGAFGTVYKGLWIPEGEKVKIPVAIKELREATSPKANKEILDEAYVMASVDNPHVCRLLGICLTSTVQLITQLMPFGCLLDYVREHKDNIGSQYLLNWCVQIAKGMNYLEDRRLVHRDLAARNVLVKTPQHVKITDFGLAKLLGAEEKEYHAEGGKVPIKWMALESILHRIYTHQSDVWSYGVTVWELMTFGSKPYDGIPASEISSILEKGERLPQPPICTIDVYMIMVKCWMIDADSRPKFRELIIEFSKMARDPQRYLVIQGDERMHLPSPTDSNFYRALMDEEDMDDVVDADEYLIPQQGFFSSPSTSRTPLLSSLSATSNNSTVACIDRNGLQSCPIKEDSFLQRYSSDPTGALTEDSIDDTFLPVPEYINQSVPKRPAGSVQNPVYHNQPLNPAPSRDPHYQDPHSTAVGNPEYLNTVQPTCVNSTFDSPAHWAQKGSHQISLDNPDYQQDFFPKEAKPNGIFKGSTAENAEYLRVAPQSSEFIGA
Turning to `Oc1cccc(N=Cc2ccccc2O)c1`, the IC50 was > 140 µM.
To `Oc1ccc(CNc2cccc(O)c2)cc1` belongs > 140 µM.
Compound `Oc1ccc(N=Cc2cccc(O)c2)cc1` registered a half-maximal inhibitory concentration (IC50) of 33 µM.
To `Oc1cccc(C=Nc2ccccc2O)c1` belongs 108 µM.
With `Oc1ccc(C=Nc2cccc(O)c2)cc1`, the IC50 was > 140 µM.
To `Oc1ccc(CNc2ccccc2O)cc1` belongs > 140 µM; to `Oc1cccc(NCc2ccccc2O)c1`, > 140 µM; to `Oc1cccc(CNc2cccc(O)c2)c1`, > 140 µM.
Consider `Oc1ccccc1CNc1ccccc1O`, for which the IC50 is > 140 µM.
On to `Oc1ccc(CNc2ccc(O)cc2)cc1`, for which the half-maximal inhibitory concentration (IC50) was determined as 33 µM.
`O=C(O)c1cc(N(Cc2ccccc2O)Cc2cc(O)ccc2O)ccc1O` yielded a half-inhibitory concentration (IC50) of 0.4 µM.
As for `Oc1ccc(NCc2cccc(O)c2)cc1`, the half-maximal inhibitory concentration (IC50) was > 140 µM.
The compound `Oc1ccc(N=Cc2ccccc2O)cc1` yielded an IC50 of 92 µM.
Regarding `Oc1ccc(NCc2ccccc2O)cc1`, the IC50 was > 140 µM.
To `Oc1ccccc1C=Nc1ccccc1O` belongs > 140 µM.
Take `Oc1cccc(CNc2ccccc2O)c1`: the IC50 is > 140 µM.
With `Oc1ccc(C=Nc2ccccc2O)cc1` the figure was > 140 µM; with `Oc1ccc(C=Nc2ccc(O)cc2)cc1`, > 140 µM.
To `Oc1cccc(C=Nc2cccc(O)c2)c1` belongs > 140 µM.

These data come from the Kinase Knowledgebase extract (Sharma et al. 2016).
